# Experimental data published in the supplement of paper PMC10307832.
# Assays:
# Assay in all cases: relative viability (nuclei count vs DMSO), 5 days (fraction); higher = more cells survive
# [1] = compound: CC1=CC(=C(N1C2=CC=C(C=C2)Cl)C)C(=O)CN3CCCCC3 [IU1-47] + CC1(C)CCC(c2ccc(Cl)cc2)=C(CN2CCN(c3ccc(C(=O)NS(=O)(=O)c4ccc(N[C@H](CCN5CCOCC5)CSc5ccccc5)c(S(=O)(=O)C(F)(F)F)c4)cc3)CC2)C1 [Navitoclax] (partner 0.5 µM)
# How it was run: (§1)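 One day after seeding in 1536-well plates, lung cancer cell lines were dosed by pin tool. Dosing was either single-drug or a fixed anchor-drug dose plus five library-drug doses (not always all listed) in √10 steps. After 5 days, nuclei were stained in one fix-and-stain step and counted on 4× images, and relative viability is the nuclei count of treated wells over that of vehicle wells, given as the median of duplicate plates.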
# [2] = compound: CC1=CC(=C(N1C2=CC=C(C=C2)Cl)C)C(=O)CN3CCCCC3 [IU1-47] + N=C(N)NC(=N)NCCc1ccccc1 [Phenformin] (partner 250 µM)
# How it was run: as §1
# [3] = compound: Cc1nc(C(=O)NCC(=O)O)c(O)c2ccc(Oc3ccccc3)cc12 [FG-4592] + CCNC(=O)c1noc(-c2cc(C(C)C)c(O)cc2O)c1-c1ccc(CN2CCOCC2)cc1 [Luminespib] (partner 0.01 µM)
# How it was run: as §1
# [4] = compound: Cc1nc(C(=O)NCC(=O)O)c(O)c2ccc(Oc3ccccc3)cc12 [FG-4592] + Cc1nc(NC(=O)N2CCC[C@H]2C(N)=O)sc1-c1ccnc(C(C)(C)C(F)(F)F)c1 [Alpelisib] (partner 2 µM)
# How it was run: as §1
Cell Line,relative viability ([1]; first compound 0.08 µM),relative viability ([1]; first compound 0.253 µM),relative viability ([1]; first compound 0.8 µM),relative viability ([1]; first compound 2.53 µM),relative viability ([1]; first compound 8 µM),relative viability ([2]; first compound 0.08 µM),relative viability ([2]; first compound 0.253 µM),relative viability ([2]; first compound 0.8 µM),relative viability ([2]; first compound 2.53 µM),relative viability ([2]; first compound 8 µM),relative viability ([3]; first compound 0.08 µM),relative viability ([3]; first compound 0.253 µM),relative viability ([3]; first compound 0.8 µM),relative viability ([3]; first compound 2.53 µM),relative viability ([3]; first compound 8 µM),relative viability ([4]; first compound 0.08 µM),relative viability ([4]; first compound 0.253 µM),relative viability ([4]; first compound 0.8 µM),relative viability ([4]; first compound 2.53 µM),relative viability ([4]; first compound 8 µM)
NCI-H1755,1.15,1.05,1.06,1.07,1.01,0.684,0.665,0.698,0.613,0.662,0.417,0.295,0.331,0.492,0.517,0.906,0.888,0.906,0.945,0.878
NCI-H1792,0.65,0.725,0.76,0.678,0.251,0.302,0.249,0.197,0.174,0.183,0.36,0.492,0.454,0.413,0.478,0.78,0.635,0.544,0.619,0.721
NCI-H1793,0.412,0.358,0.445,,0.424,0.419,0.259,0.475,,0.352,0.155,0.227,,0.157,0.185,0.772,0.678,,0.719,0.557
NCI-H1915,0.822,0.805,0.828,,0.833,0.373,0.354,0.342,,0.332,0.721,0.828,0.911,0.781,0.697,1.04,1.02,1.05,1.01,1.05
NCI-H1944,1.1,1.12,1.04,,1.03,0.2,0.192,0.199,0.216,0.168,0.762,0.716,0.728,0.891,0.763,0.794,0.801,0.692,0.853,0.836
NCI-H1975,1.25,1.14,1.38,1.18,0.888,0.411,0.411,0.409,0.419,0.384,0.305,0.244,0.2,0.187,0.0934,0.679,0.555,0.672,0.655,0.56
NCI-H1993,0.876,0.938,0.893,0.979,0.895,0.488,0.493,0.516,0.506,0.498,0.806,0.868,0.771,0.984,0.869,0.689,0.614,0.622,0.647,0.669
NCI-H2009,1.23,1.2,1.16,1.14,1.18,0.519,0.501,0.5,0.486,0.412,1.04,0.936,1.01,0.959,0.999,1.18,1.06,1.19,1.15,1.22
NCI-H2023,1.02,0.934,1.05,1.02,1.1,0.459,0.387,0.411,0.472,0.378,0.617,0.634,0.698,0.773,0.599,0.683,0.569,0.722,0.631,0.534
NCI-H2085,1.15,1.22,1.13,1.19,1.01,0.736,0.711,0.713,0.771,0.675,0.439,0.47,0.389,0.426,0.462,0.911,0.889,0.967,1.04,0.935
NCI-H2087,1.1,0.922,1.11,0.947,0.99,0.469,0.503,0.548,,0.441,0.196,0.151,0.142,0.151,0.148,1.11,0.956,1.11,1.05,1.03
NCI-H2126,0.987,0.823,0.897,0.545,0.809,0.535,0.515,0.508,,0.529,0.918,0.904,0.887,0.759,0.603,0.744,0.787,0.661,0.769,0.69
NCI-H2170,0.74,0.734,0.684,0.525,0.577,0.48,0.435,0.389,0.414,0.403,0.653,0.62,0.538,0.606,0.501,0.823,0.801,0.794,0.826,0.581
NCI-H2228,0.871,0.97,1.69,0.659,0.832,0.413,0.434,0.315,0.32,0.262,0.151,0.181,0.174,0.113,0.16,0.536,0.545,0.759,0.766,0.637
NCI-H2347,0.964,0.888,0.912,0.874,0.802,0.387,0.413,0.336,0.496,0.345,0.4,,0.258,0.323,0.293,0.988,,0.85,1.16,1.11
NCI-H2405,1.02,0.902,0.862,,0.897,0.404,0.415,0.386,0.371,0.365,0.577,,0.675,0.691,0.658,,0.399,0.655,0.638,0.715
NCI-H3122,1.02,0.966,1.02,1.01,1,0.398,0.373,0.366,0.372,0.347,0.079,0.108,0.0631,0.092,0.0857,0.861,0.764,0.665,0.781,0.733
